From patent US20060276844A1, “Ingestible device for nitric oxide production in tissue” (priority 2005, published 2006)

Tests used:
[1] = test system: rat jejunum; assay: NO-signal-enhanced drug permeation in rat jejunum in vitro, with NOS inhibitor L-NAME (FIGS. 2-3); format: in vitro ADME; details: 1 mM L-NAME plus NO signal (5 mA, 1 ms, 18 Hz), rat jejunum segments
Description: Reference is made to FIGS. 2 and 3, which are graphs showing in vitro experimental results measured in accordance with an embodiment of the present invention. These experiments assessed the effect of the application of an electrical signal configured to enhance NO-associated drug permeation, which is inhibited by non-specific NOS inhibitor NG-Nitro-L-Arginine methyl ester (L-NAME) in rat jejunum in vitro. The NO-releasing electrical signal (hereinbelow, the “NO signal”) was applied with the following parameters: an amplitude of 5 mA, a pulse width of 1 ms, and a frequency of 18 Hz. In the experiment shown in FIG. 2, 1 mg/ml octreotide was applied to 11 segments of rat jejunum. The NO signal alone was applied to six of the segments, 1 mM L-NAME alone was applied to two of the segments, and the NO signal and 1 mM L-NAME were applied to three of the segments. In the experiment shown in FIG. 3, 1 mg/ml leuprolide was applied to 14 segments of rat jejunum. The NO signal alone was applied to three of the segments, 1 mM L-NAME alone was applied to two of the segments, the NO signal and 1 mM L-NAME were applied to three of the segments, and no treatment was applied to the remaining six segments.

[2] = test system: rat jejunum; assay: Octreotide permeation in rat jejunum in vitro: electrical stimulation versus NO donor (FIG. 4); format: in vitro ADME
Method: FIG. 4 is a graph showing in vitro experimental results measured in accordance with an embodiment of the present invention. In this experiment, the permeation-enhancing effect of electrical stimulation in rat jejunum in vitro was compared with the effect of an NO donor, molsidomine (SIN-10) (exogenous nitric oxide). The NO signal alone was applied to six segments of rat jejunum, 1 mM SIN-10 alone was applied to four segments, the NO signal and 1 mM SIN-10 were applied to three segments, and no treatment was applied to six segments.

Row | SMILES | effect on NO-signal-enhanced drug permeation (octreotide) ([1]; FIG. 2, 1 mg/ml octreotide) | effect on NO-signal-enhanced drug permeation (leuprolide) ([1]; FIG. 3, 1 mg/ml leuprolide) | rate of octreotide transepithelial transport compared with electrically-induced absorption ([2]; 1 mM SIN-10 alone) | effect of combination with electrical stimulation on enhanced permeation of octreotide, versus electrical stimulation alone ([2]; NO signal plus 1 mM SIN-10)
1 | COC(=O)[C@@H](N)CCCNC(=N)N[N+](=O)[O-] [L-NAME, NG-Nitro-L-Arginine methyl ester] | nearly prevented | nearly prevented |  | 
2 | CCOC(=O)[N-]c1cn(N2CCOCC2)n[o+]1 [SIN-10, molsidomine] |  |  | similar | did not augment
